Measured values: patent US20020058049A1, “Stable ophthalmic preparation” (priority 2000, published 2002)

Key:
[1] = Long-term stability of unoprostone in polypropylene bottles at 25° C., 40% relative humidity; assay type: physicochemical; details: PP bottle
Protocol: (§1) 0.15 wt % unoprostone isopropyl ester (a typical prostaglandin analogue) solution in an isotonic solution containing mannitol and edetate disodium is prepared. The solution also contains 0.015 wt % benzalkonium chloride as a preservative. The solution is placed in a polypropylene bottle and a polyethylene bottle, which bottles have 7.5 ml void volume, and 5 ml of the solution is placed in each bottle. The bottles have air-tight caps. The polypropylene bottle is molded from REXENE PP23M2 polypropylene and the polyethylene bottle is produced from ALATHON 2025 […] polyethylene (LDPE), which is available from DuPont. The bottles are placed in controlled environment at 40° C. and ambient humidity, and the concentration of unoprostone is periodically measured using HPLC.
The unoprostone solution is placed in the polypropylene bottles, as described in Example 1, and placed in storage at 25° C. with 40% relative humidity. The stability over time of unoprostone in the polypropylene bottles is measured.

[2] = Percent unoprostone isopropyl absorbed by bottle (PP vs LDPE) at three storage temperatures; assay type: physicochemical
Protocol: as §1
Example 1 is repeated except that three different temperatures are used to store the samples. As put forth in Table 3, the percent unoprostone isopropyl absorbed by polypropylene is much lower than LDPE. This is particularly significant in that the lower absorption at higher temperatures enables the preparation of the present invention to meet current FDA stability requirements without refrigeration.

## CCCCCCCC(=O)CC[C@@H]1[C@@H](C/C=C\CCCC(=O)OC(C)C)[C@@H](O)C[C@H]1O [Unoprostone, unoprostone isopropyl ester]
[1]; 3 mo.
  % Unoprostone Isopropyl (Active): 101.3%
[1]; 6 mo.
  % Unoprostone Isopropyl (Active): 101.3%
[1]; 9 mo.
  % Unoprostone Isopropyl (Active): 101.3%
[1]; 18 mo.
  % Unoprostone Isopropyl (Active): 101.3%
[1]; Initial
  % Unoprostone Isopropyl (Active): 101.3%
[1]; over eighteen months
  degradation in concentration over time: no measurable degradation
[2]; LDPE bottle, 12 mo. at 5° C.
  % Unoprostone Absorbed: 3.11%
[2]; LDPE bottle, 12 mo. at 25° C.
  % Unoprostone Absorbed: 4.76%
[2]; LDPE bottle, 12 mo. at 30° C.
  % Unoprostone Absorbed: 5.70%
[2]; PP bottle, 12 mo. at 5° C.
  % Unoprostone Absorbed: 0.00%
[2]; PP bottle, 12 mo. at 25° C.
  % Unoprostone Absorbed: 0.98%
[2]; PP bottle, 12 mo. at 30° C.
  % Unoprostone Absorbed: 1.98%
